Laboratory results: patent publication US7820656B2, “Pharmaceutical composition comprising N-aryl N′ morpholino/piperidino thiocarbamide derivatives for treating type II diabetes” (priority 2004, dated 2010)

Tests used:
HepG2 hepatocyte = experiment: Measurement of glycogenesis ability (glycogen content, absorbance at 490 nm); format: cell-based; details: for Glycogenesis (absorbance): absorbance at 490 nm, control 0.103; for Rate of Increase(%) of glycogenesis: versus control
Protocol: Thereto, ethanol was added to precipitate glycogen, followed by dissolving the precipitated glycogen in conc. sulfuric acid. Glucose produced was reacted with phenol to obtain a stained product. An absorbance of the stained product was measured at 490 nm (J Applied Physiol, 1970, 28, 234-236).

HepG2 cells = experiment: Measurement of lipid peroxide (TBARS); format: cell-based; details: for Average content of TBARS (%): control 100.0; for decrease of TBARS content compared with control group: HepG2, 24 hours (FIG. 4)
Protocol: HepG2 cells were cultured to administer N(4′-chlorophenyl) N′ morpholino thiocarbamide (10 μg/ml-100 μg/ml). After 24 hours, a cellular culture solution was removed to wash HepG2 cells with a phosphate buffer solution (PBS), prior to adding 0.1% Triton X-100 to detach the cells. The separated cell extracts were mixed with 20% acetic acid, pH 3.5 and 0.78% aqueous thiobarbituric acid solution. The mixture was heated at 95° C. for 1 hour and centrifuged at 3000 rpm for 15 minutes. The absorbance of the red supernatant was measured at 532 nm (Anal Biochem, 1979, 95, 351-358).

RAW 264.7 cells = experiment: Measurement of anti-inflammatory action (nitrites, Griess reaction, LPS-stimulated); format: cell-based; details: for Produced nitrites: 15 hours, control 3.3435, LPS 6.2775
Protocol: Nitrites accumulated in a cellular medium were measured as a marker of […] (NO) formation through a Griess reaction. RAW 264.7 cells were cultured in a medium containing DMEM, 10% FBS, penicillin (100 units/ml) and streptomycin sulfate (100 μg/ml) in a presence of 5% CO2, treated with N-aryl N′ morpholino/piperidino thiocarbamide derivatives in a content of 10 μg/ml and 100 μg/ml in a presence of LPS (1 μg/ml), followed by adding a Griess reagent 100 μl to the medium 100 μl 15 hours later to be cultured at room temperature for 10 minutes and measuring an absorbance at 540 nm. Nitrite content in a medium was evaluated by a standard curve using NaNO2.

mouse = experiment: Oral glucose tolerance test; format: in vivo; details: 80 mg/kg oral 1 h before glucose 2 g/kg oral; blood glucose at 30, 60, 120 min; compared with control (FIG. 1)
Protocol: A mouse was starved for 18 hours, prior to orally administering N(4′-chlorophenyl) N′ morpholino thiocarbamide to the mouse in a dose of 80 mg/kg. After an hour passed, Glucose of 2 g/kg was orally administered to measure blood glucose level in 30, 60, and 120 minutes using a blood glucose testing kit.

[1] = tested on: streptozotocin-induced diabetic mouse; experiment: Blood glucose lowering effect using a streptozotocin-induced diabetic mouse; format: in vivo; details: 80 mg/kg oral a day, 5 days a week, 3 consecutive weeks; STZ control almost 550 mg/dl (FIG. 2)
Protocol: A mouse was used two weeks after streptozotocin (50 mM citrate buffer, pH 4.5) was intraperitoneally administered to the mouse (J Gene Med. 2003, 5, 417-424). […] Change of blood glucose level was measured once a week.

insulin receptor = target: T1, insulin receptor (Mus musculus, UniProt P15208); experiment: Phosphorylation measurement of insulin receptor tyrosin residues (hepatic lysate, immunoprecipitation, western blot); format: in vivo; details: 80 mg/kg to mouse starved 16 hours, liver after 1 hour; compared with control (FIG. 5)
T1 construct: the mouse was dissected to separate a liver at 4° C; from tissue; host or cells: mouse liver (hepatic lysate)
Protocol: N(4′-chlorophenyl) N′ morpholino thiocarbamide in a dose of 80 mg/kg was administered to a male IC mouse starved for 16 hours. After an hour passed, the mouse was dissected to separate a liver at 4° C. Hepatic homogenization was provided by a little modification of conventional method (Zhao, H., Xu, H., Moore, E., Meiri, N., Quon, M. J., Alkon, D., L., Insulin receptors and spatial memory. J. Biol. Chem. 274, 34893-34902, 1999). The separated liver was suspended in a buffer A containing 50 mM Tris HCl, pH 7.4, 1 mM EDTA, 1 mM EGTA, 150 mM NaCl, 1% Triton X-100, 0.5 mM PMSF, 1 mM Na3VO4, leupeptin and aprotinin 1 μg/ml, and homogenized using a Potter-Elvehjem homogenizer. The lysate was centrifuged at 10,000×g for 20 minutes. The supernatant was analyzed on proteins and preserved at −70° C.
An immunoprecipitation was carried out by a known technique (Kim S. J., Kahn, C. R. Insulin stimulates phosphorylation of c-Jun, c-Fos and Fos-related proteins in cultured adipocytes. J. Biol. Chem. 269, 11887-11892, 1994). An equal amount of proteins from hepatic lysate were cultured with an insulin receptor antibody at 4° C. for 1 hour, followed by thereto adding protein A-cephalos to precipitate the immune complex by a centrifuge. […]

[2] = Measurement of body weight; format: in vivo; details: 80 mg/kg oral once a day for 3 consecutive weeks; administered group vs control (FIG. 6)
Protocol: Change of body weight was measured every week before and after N(4′-chlorophenyl) N′ morpholino thiocarbamide (80 mg/kg, PO) was administered.

[3] = Measurement of lethal dose 50%; format: in vivo, mouse; details: mouse, in vivo; oral, mice
Protocol: (§1) The number of dead animal was counted after N(4′-chlorophenyl) N′ morpholino thiocarbamide was orally administered to 10 mice per a dose in a dose of 50 mg/kg, 500 mg/kg, and 5000 mg/kg.

mice = experiment: Measurement of lethal dose 50%; format: in vivo, mouse; details: oral, 50 mg/kg, 500 mg/kg and 5000 mg/kg, 10 mice per dose
Protocol: as §1

[4] = Dosage 10 ug/ml with LPS 1 μg/ml
[5] = Dosage 100 ug/ml with LPS 1 μg/ml

T1 sequence (P15208 28-748 limits assumed): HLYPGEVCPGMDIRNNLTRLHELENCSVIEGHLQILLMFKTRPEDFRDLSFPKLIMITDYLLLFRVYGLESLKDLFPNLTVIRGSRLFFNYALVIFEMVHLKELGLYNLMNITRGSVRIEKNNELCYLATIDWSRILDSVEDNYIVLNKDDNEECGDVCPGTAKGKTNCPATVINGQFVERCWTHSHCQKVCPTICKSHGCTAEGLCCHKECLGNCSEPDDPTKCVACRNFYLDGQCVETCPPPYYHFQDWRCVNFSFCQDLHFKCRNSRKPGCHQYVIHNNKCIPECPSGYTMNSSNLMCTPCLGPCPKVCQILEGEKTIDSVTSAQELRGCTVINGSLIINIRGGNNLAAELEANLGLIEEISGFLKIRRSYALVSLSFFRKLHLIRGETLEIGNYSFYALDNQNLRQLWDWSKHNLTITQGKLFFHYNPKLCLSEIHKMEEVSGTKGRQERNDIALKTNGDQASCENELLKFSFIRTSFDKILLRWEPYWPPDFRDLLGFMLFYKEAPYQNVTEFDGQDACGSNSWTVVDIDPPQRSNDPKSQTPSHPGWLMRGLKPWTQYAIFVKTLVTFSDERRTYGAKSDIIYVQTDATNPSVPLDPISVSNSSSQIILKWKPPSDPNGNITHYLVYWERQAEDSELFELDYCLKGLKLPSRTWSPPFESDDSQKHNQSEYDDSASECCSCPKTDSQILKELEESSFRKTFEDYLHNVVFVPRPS

SMILES | Glycogenesis (absorbance) (HepG2 hepatocyte; Dosage 10 μg/ml) | Rate of Increase(%) of glycogenesis (HepG2 hepatocyte; Dosage 10 μg/ml) [%] | Glycogenesis (absorbance) (HepG2 hepatocyte; Dosage 100 μg/ml) | Rate of Increase(%) of glycogenesis (HepG2 hepatocyte; Dosage 100 μg/ml) [%] | Average content of TBARS (%) (HepG2 cells; Dosage 10 μg/ml) | Average content of TBARS (%) (HepG2 cells; Dosage 100 μg/ml) | % (produced nitrites; control 0, LPS 100) (RAW 264.7 cells; [4]) [%] | Produced nitrites (RAW 264.7 cells; [4]) [µM] | % (produced nitrites; control 0, LPS 100) (RAW 264.7 cells; [5]) [%] | Produced nitrites (RAW 264.7 cells; [5]) [µM] | blood glucose lowering effect in oral glucose tolerance test (mouse) | blood glucose level [1] [mg/dL] | increase of glycogenesis compared with control group (HepG2 hepatocyte; 10 μg/ml, 24 hours, HepG2 (FIG. 3)) [%] | decrease of TBARS content compared with control group (HepG2 cells; 10 μg/ml) [%] | decrease of TBARS content compared with control group (HepG2 cells; 100 μg/ml) [%] | tyrosin phosphorylation of insulin receptors (insulin receptor) | change of body weight [2] | LD50 [3] [mg/kg] | number of dead animals (mice)
Cc1ccccc1NC(=S)NN1CCOCC1 [2-methylphenyl] | 0216 | 110 | 0.238 | 131 | 57.9 | 60.5 | 81.17 | 5.3155 | 66.14 | 5.284 |  |  |  |  |  |  |  |  | 
COc1cccc(NC(=S)NN2CCOCC2)c1 [3-methoxyphenyl] | 0.191 | 85 | 0.202 | 96 | 81.9 | 63.9 | 81.19 | 5.7255 | 56.99 | 5.0155 |  |  |  |  |  |  |  |  | 
Cc1cccc(NC(=S)NN2CCOCC2)c1 [3-methylphenyl] | 0.189 | 83 | 0.325 | 216 | 67.5 | 66.3 | 81.19 | 5.7255 | 61.83 | 5.1575 |  |  |  |  |  |  |  |  | 
S=C(Nc1ccc(Cl)cc1)NN1CCOCC1 [N(4′-chlorophenyl) N′ morpholino thiocarbamide] |  |  |  |  |  |  | 4.81 | 3.4845 | −9.85 | 3.0545 | remarkable blood glucose lowering effect | 300 to 400 | 49.89 | 10.2 | 32 | noticeable tyrosin phosphorylation of insulin receptors | no difference in body weight | > 5000 | no mouse was dead
S=C(Nc1ccccc1)NN1CCOCC1 [phenyl (C11H15N3OS)] | 0.301 | 195 | 0.225 | 118 |  |  | 62.37 | 5.1735 | 48.93 | 4.779 |  |  |  |  |  |  |  |  | 
S=C(Nc1ccccc1)NN1CCCCC1 [phenyl (C12H17N3S)] | 0.196 | 90 | 0.161 | 56 | 61.4 | 65.1 | 75.26 | 5.5515 | 74.20 | 5.5205 |  |  |  |  |  |  |  |  | 
